The text below walks through data of patent publication US20090233999A1, “COMPOSITIONS AND THERAPEUTIC METHODS INVOLVING ISOFLAVONES AND ANALOGUES THEREOF” (NOVOGEN RESEARCH PTY LTD, priority 1999, published 2009).

Data set [1] in a line: DPPH free radical scavenging. The protocol: The antioxidant (free radical trapping) activity of test compounds was assessed using the stable free radical compound 2,2-diphenyl-1-picrylhydrazyl (DPPH). A stock solution of DPPH was prepared at a concentration of 0.1 mM in ethanol and mixed for 10 minutes prior to use. Test compounds at a concentration of 100 μM were reacted with DPPH for 20 minutes, after which time the absorbance at 517 nm was determined and the change in absorbance compared to a reagent blank (DPPH with ethanol alone). A dose response curve was produced for those compounds with free radical scavenging activity (ΔAbs>0.3) at 100 μM. The IC50 value was estimated as the concentration of test compound that caused a 0.6 change in absorbance (with 1.2 absorbance units representing total scavenging of the DPPH radical).

For data set [2], the system named is rat aortic ring. Description: Rat aortic ring assay, contractile response to noradrenaline. To be noted: 1 μg/ml. How it is done: The vasodilatory capacity was examined ex vivo using the rat aortic ring assay.
Male Sprague-Dawley rats (250±50 g) were euthanased with 80% CO2 and 20% O2. The thoracic aorta was excised and quickly mounted in organ-baths as described. Full concentration-contractile curves were obtained to noradrenaline (0.1 nM-[…]) with and without test compounds delivered at a concentration of 1 μg/ml. Experiments were repeated in n=5 different rings from 5 different animals. Only one compound at any one concentration was tested on any one ring from any one animal. Sigmoidal dose response curves were fitted for the data and the logEC50 and the Ema, calculated (Prism 4, GraphPad Software). The difference in these values between the presence and absence of test compound was calculated using a two-tailed paired t test. The effects of β-oestrodiol and vehicle alone were examined as a positive and negative control respectively.

In data set [3] the test system is BALB/c mice (AA-induced ear swelling). To be noted: regardless of route of administration; cited from earlier work.
Data set [4] addresses T1, ER beta receptor (Homo sapiens, UniProt Q92731).
T1 construct: purchased Panvera Corporation P2614/2615
Description: Estrogen Receptor Beta Competitor Assay Core HTS Kit (Panvera). To be noted: competitive binding; kind of quantity not given; read-out: binding affinity, ER beta receptor. How it is done:
The binding affinity of various compounds of the invention for both subtypes of the estrogen receptor was determined with the “Estrogen Receptor Alpha or Beta Competitor Assay Core HTS Kit” supplied by Panvera Corporation (Product No. P2614/2615).

The subject of data set [5] is COX (PGE2 and TXB2 synthesis). In words: LPS-induced prostanoid (PGE2, TXB2) synthesis in human monocytes. To be noted: LPS 200 ng/mL, 18 hrs, data at 10 μM. It counts as cell-based. How it is done: Human peripheral blood monocytes were isolated from buffy coats by lymphoprep gradient separation followed by counter-current centrifugal elutriation. Test compounds were dissolved in DMSO and added to fresh monocytes to achieve concentrations of 0, 10 and 100 μM. After 30 min, lipopolysaccharide (LPS) was added to achieve a final concentration of 200 ng/mL. After incubation for 18 hrs at 37° C. in 5% CO2, supernatants were removed and PGE2 and TXB2 (the stable hydrolysis product of TXA2) production were measured by radioimmunoassay (RIA). ANOVA followed by Newman-Keuls multiple comparisons test was used to examine differences between doses and the control values.

T1 sequence (Q92731 whole entry): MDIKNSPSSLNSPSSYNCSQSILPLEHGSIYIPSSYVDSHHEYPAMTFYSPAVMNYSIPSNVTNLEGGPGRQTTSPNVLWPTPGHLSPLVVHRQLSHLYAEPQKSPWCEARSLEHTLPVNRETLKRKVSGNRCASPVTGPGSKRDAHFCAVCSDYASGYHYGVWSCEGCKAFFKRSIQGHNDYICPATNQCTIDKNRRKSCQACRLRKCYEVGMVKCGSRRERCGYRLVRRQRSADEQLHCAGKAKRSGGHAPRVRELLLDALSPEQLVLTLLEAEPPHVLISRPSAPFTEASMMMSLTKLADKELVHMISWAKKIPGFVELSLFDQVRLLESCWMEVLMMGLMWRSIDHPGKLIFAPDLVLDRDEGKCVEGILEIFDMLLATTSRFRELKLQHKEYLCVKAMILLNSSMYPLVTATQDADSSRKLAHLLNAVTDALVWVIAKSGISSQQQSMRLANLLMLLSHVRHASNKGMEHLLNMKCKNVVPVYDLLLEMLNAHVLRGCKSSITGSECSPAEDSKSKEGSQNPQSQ

A word on the EC50: it is the concentration at which the effect is half-maximal. In general, melting point refers to the temperature, or range, at which the solid turns liquid. `Cc1c(O)ccc2c1OCC(c1ccc(O)cc1)=C2` [Cpd. 13, 4′,7-Dihydroxy-8-methylisoflav-3-ene] showed a melting point of 190 to 193 °C. The “ability to scavenge free radicals” value in data set [1] (DPPH) is recorded as “limited activity”. In addition, the EC50 in data set [1] (DPPH 0.1 mM, 20 minutes, read-out: Free radical scavenging ability EC50) was 94 µM. Moreover, in data set [2], the “contractile response (logEC50) of the aortic ring to noradrenaline” value is given as “significantly inhibited” and the “strength of the contractile response (Emax)” value was “reduced”.

Consider `CC(=O)Oc1ccccc1C(=O)O` [aspirin], for which the AA-induced oedema result in data set [3] is recorded as “did not influence”.

Consider `O=C1c2cc(Cl)c(O)cc2OCC1c1ccc(O)cc1` (stereo not shown) [6-Chloro-4′,7-dihydroxyisoflavan-4-one], for which the IC50 in data set [4] worked out at 32.1 µM.

In turn, `CC(=O)Oc1ccc(C2COc3cc(OC(C)=O)cc(C)c3C2=O)cc1` (stereo not shown) [Example 6, 4′,7-Diacetoxy-5-methylisoflavan-4-one] displayed a melting point of 143 to 145 °C.

Regarding `Cc1c(O)ccc2c1OCC(c1ccccc1)=C2` [Cpd. 17, 7-Hydroxy-8-methylisoflav-3-ene], the “COX inhibitory activity (inhibition of PGE2 and TXA2 production)” value in data set [5] is on record as “significant COX inhibitory activity”.

Regarding `CC(C)Cc1ccc(C(C)C(=O)O)cc1` (stereo not shown) [ibuprofen], the AA-induced oedema result in data set [3] was “did not influence”.

Take `COc1ccc2c(c1)c(CC(=O)O)c(C)n2C(=O)c1ccc(Cl)cc1` [indomethacin]: in data set [3], the AA-induced oedema entry is listed as “does inhibit”.

With `CC(=O)Oc1ccc(-c2coc3cc(OC(C)=O)cc(C)c3c2=O)cc1` [Example 5, 4′,7-Diacetoxy-5-methylisoflavone], the melting point fell in the range of 195 to 197 °C.

Take `CN1C(C(=O)Nc2ccccn2)=C(O)c2ccccc2S1(=O)=O` [piroxicam]: the AA-induced oedema result in data set [3] is listed as “did not influence”.
